# According to patent publication US20110280940A1, “Di-Vanilloyl And Tri-Vanilloyl Derivatives For Use In Anti-Cancer Therapy” (priority 2008, published 2011):
# Read-outs that look alike come from different tables or passages of the source.
# Key:
# WEE1 kinase = molecular target: T1, WEE1 kinase (Homo sapiens, UniProt P30291); experiment: Radiometric protein kinase assay (33 PanQinase), WEE1; format: biochemical; conditions: for IC50: dose-response 0-100 μM, n=3, read-out: IC50: Concentration of drug needed in order to inhibit kinase activity by 50%, WEE1; for inhibition at 57 µM: read-out: inhibition of WEE1 activity
# T1 construct: made in house
# Procedure: (§1) A radiometric protein kinase assay (33 PanQinase®Activity Assay) was used for measuring the kinase activity of 250 protein kinases. All kinase assays were performed in 96-well flashPlates™ from Perkin Elmer (Boston, Mass., USA) in a 50 μl reaction volume. The reaction cocktail was pipetted in 4 steps in the following order: • 10 μl of non-radioactive ATP solution (in H2O) • 25 μl of assay buffer/[γ-33P]-ATP mixture • 5 μl of test sample in 10% DMSO • 10 μl of enzyme/substrate mixture
# (§2) The assay for all enzymes contained 60 mM HEPES-NaOH, pH 7.5, 3 mM MgCl2, 3 mM MnCl2, 3 μM Na-orthovanadate, 1.2 mM DTT, 50 μg/ml PEG20000, 1 μM ATP/[γ-33P]-ATP (approx. […] per well), protein kinase, and substrate. All PKC assays (except the PKC-mu and the PKC-nu assay) additionally contained 1 mM CaCl2, 4 mM EDTA, 5 μg/ml Phosphatidylserine and 1 μg/ml 1,2-Dioleyl-glycerol. The MYLK2, CAMK1D, CAMK2A, CAMK2B, CAMK2D, CAMK4, CAMKK2, DAPK2 and EEF2K assays additionally contained 1 μg/ml Calmodulin and 0.5 mM CaCl2. The PRKG1 and PRKG2 assays additionally contained 1 μM cGMP.
# (§3) The protein kinases were expressed either in Sf9 insect cells or in E. coli as recombinant GST-fusion proteins or as His-tagged proteins. All kinases were produced from human cDNAs. Kinases were purified by affinity chromatography using either GSH-agarose (Sigma) or Ni-NTH-agarose (Qiagen). The purity of the protein kinases was examined by SDS-PAGE/coomassie staining. The identity of the protein kinases was checked by mass spectroscopy.
# (§4) The reaction cocktails were incubated at 30° C. for 60 minutes. The reaction was stopped with 50 μl of 2% (v/v) H3PO4, plates were aspirated and washed two times with 200 μl 0.9% (w/v) NaCl. All assays were performed with a BeckmanCoulter Biomek 2000/SL robotic system.
# (§5) Incorporation of ^33Pi (counting of “cpm”) was determined with a microplate scintillation counter (Microbeta, Wallac).
# (§6) For each kinase, the median value of the cpm of three wells with complete reaction cocktails, but without kinase, was defined as “low control” […]. This value reflects unspecific binding of radioactivity to the plate in the absence of protein kinase but in the presence of the substrate. Additionally, for each kinase the median value of the cpm of three other wells with the complete reaction cocktail, but without any compound, was taken as the “high control”, i.e. full activity in the absence of any inhibitor […]. The difference between high and low control of was taken as 100% activity for each kinase. As part of the data evaluation the low control value of each kinase was subtracted from the high control value as well as from their corresponding “compound values”. The residual activity (in %) for each compound well was calculated by using the following formula: Res. Activity (%)=100×[(cpm of compound−low control)/(high control−low control)]
# [1] = test system: Eleven human cancer cell lines; experiment: MTT colorimetric assay, across the eleven human cancer cell lines; format: cell-based
# Outline: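 Cells were seeded, left 24 h at 37 °C, then exposed to compound at molar concentrations from 10^-8 to 10^-4 M for 72 h at 37 °C, in sestuplicate. Mean OD gave % living cells versus untreated control.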
# Aurora B kinase = molecular target: T2, Aurora B kinase (Homo sapiens, UniProt Q96GD4); experiment: Radiometric protein kinase assay (33 PanQinase), Aurora B; format: biochemical; conditions: for IC50: dose-response 0-100 μM, n=3, read-out: IC50: Concentration of drug needed in order to inhibit kinase activity by 50%, AurB; for inhibition at 57 µM: read-out: inhibition of Aurora B activity
# T2 construct: made in house
# Procedure: Note that at a concentration of 20 μM of the DLT compounds, the activity of the three Aurora kinases is reduced by approximately 40-50%, whereas at concentrations of 50 μM, i.e. the concentration used in the anti-proliferation assays of example 2B, the activity of said kinases is reduced by 60-75%.
# as §1, with “The kinase inhibition profile of DLT95-Cl at 20 μM was determined using 255 protein kinases. Residual activity values were measured by testing each compound at one concentration in duplicate in each kinase assay. A radiometric” for “A radiometric”
# as §2, §3, §4, §5, §6
# [2] = Homo sapiens, 72 h, read-out: In Vitro IC50 Growth Inhibitory Values, m ± SEM
# [3] = mean ± SEM over the 11 human cancer cell lines, MTT, 72 hours, read-out: In Vitro IC50 Growth Inhibitory Values, m ± SEM
# T1 sequence (P30291 whole entry): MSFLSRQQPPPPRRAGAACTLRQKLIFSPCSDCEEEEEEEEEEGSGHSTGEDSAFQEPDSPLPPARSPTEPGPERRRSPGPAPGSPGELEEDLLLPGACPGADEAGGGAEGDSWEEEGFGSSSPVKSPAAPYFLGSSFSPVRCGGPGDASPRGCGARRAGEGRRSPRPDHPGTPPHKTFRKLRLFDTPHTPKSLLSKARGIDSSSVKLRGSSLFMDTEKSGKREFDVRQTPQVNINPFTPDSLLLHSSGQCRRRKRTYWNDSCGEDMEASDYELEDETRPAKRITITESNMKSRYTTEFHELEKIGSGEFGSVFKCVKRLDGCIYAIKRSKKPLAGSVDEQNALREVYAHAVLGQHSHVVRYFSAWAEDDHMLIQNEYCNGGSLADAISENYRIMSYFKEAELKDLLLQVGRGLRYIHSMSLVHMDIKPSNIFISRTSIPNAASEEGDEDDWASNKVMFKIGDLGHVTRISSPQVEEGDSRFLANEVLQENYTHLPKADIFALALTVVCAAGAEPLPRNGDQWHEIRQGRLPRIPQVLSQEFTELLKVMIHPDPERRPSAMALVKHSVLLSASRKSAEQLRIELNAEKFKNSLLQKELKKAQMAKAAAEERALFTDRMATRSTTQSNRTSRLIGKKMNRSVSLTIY
# T2 sequence (Q96GD4 whole entry): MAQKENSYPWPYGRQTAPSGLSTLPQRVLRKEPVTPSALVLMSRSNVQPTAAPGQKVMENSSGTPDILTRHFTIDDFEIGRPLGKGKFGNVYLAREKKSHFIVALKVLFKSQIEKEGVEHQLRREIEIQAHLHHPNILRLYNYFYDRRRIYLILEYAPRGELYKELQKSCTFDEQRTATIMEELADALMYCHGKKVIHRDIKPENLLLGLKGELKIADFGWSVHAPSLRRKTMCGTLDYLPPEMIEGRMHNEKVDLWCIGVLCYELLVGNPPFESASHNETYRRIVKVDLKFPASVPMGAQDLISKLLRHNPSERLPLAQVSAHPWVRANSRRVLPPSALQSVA
"IC50 [1, 3] [µM]","IC50 ([1]; Homo sapiens, MTT colorimetric assay, read-out: IC50 growth inhibitory values, range depending on the cancer cell line analyzed) [µM]",Structure (SMILES),IC50 (WEE1 kinase) [µM],inhibition at 57 µM (WEE1 kinase) [%],"IC50 [1, 2] [µM]",IC50 (Aurora B kinase) [µM],inhibition at 57 µM (Aurora B kinase) [%]
–,–,"O=C(OCc1cc(COC(=O)c2ccc(O)c(Cl)c2)cc(COC(=O)c2ccc(O)c(Cl)c2)c1)c1ccc(O)c(Cl)c1 [DLT95-Cl, [3,5-bis[(4-hydroxy-3-chloro-benzoyl)oxymethyl]phenyl]methyl 4-hydroxy-3-chloro-benzoate]",3.74,≥ 50,29 ± 1,0.9,≥ 50
49,22 to 71,"COc1cc(C(=O)OCCCCCCOC(=O)c2ccc(O)c(OC)c2)ccc1O [DLT11, Hexane-1,6-diyl bis-(4-hydroxy-3-methoxybenzoate)]",–,–,–,–,–
> 1000,–,"COc1cc(C(=O)O)ccc1O [vanillic acid, reference compound]",> 100,–,–,> 100,–
–,–,"O=C(OCc1cc(COC(=O)c2ccc(O)c(F)c2)cc(COC(=O)c2ccc(O)c(F)c2)c1)c1ccc(O)c(F)c1 [DLT95-F, [3,5-bis[(4-hydroxy-3-fluoro-benzoyl)oxymethyl]phenyl]methyl 4-hydroxy-3-fluoro-benzoate]",7.12,≥ 50,33 ± 2,2.4,≥ 50
–,–,"COc1cc(C(=O)OCc2cc(COC(=O)c3ccc(O)c(OC)c3)cc(COC(=O)c3ccc(O)c(OC)c3)c2)ccc1O [DLT95, [3,5-bis[(4-hydroxy-3-methoxy-benzoyl)oxymethyl]phenyl]methyl 4-hydroxy-3-methoxy-benzoate]",> 100,–,–,3.4,–

Structure (SMILES),"IC50 [1, 3] [µM]","IC50 ([1]; Homo sapiens, MTT colorimetric assay, read-out: IC50 growth inhibitory values, range depending on the cancer cell line analyzed) [µM]",IC50 (WEE1 kinase) [µM],inhibition at 57 µM (WEE1 kinase) [%],"IC50 [1, 2] [µM]",IC50 (Aurora B kinase) [µM],inhibition at 57 µM (Aurora B kinase) [%]
"COc1cc(C(=O)OCCOC(=O)c2ccc(O)c(OC)c2)ccc1O [DLT1, Ethane-1,2-diyl bis-(4-hydroxy-3-methoxybenzoate)]",53,–,–,–,–,–,–
